Experimental data taken from ChEMBL document CHEMBL1130747, “Synthesis of novel cyclic protease inhibitors using Grubbs olefin metathesis” (Bioorg Med Chem Lett, 1998).
pKi: −log10 of the molar value.

Biological target: T1, Rhizopuspepsin (Rhizopus microsporus var. chinensis, UniProt P06026)
T1 sequence (P06026 whole entry): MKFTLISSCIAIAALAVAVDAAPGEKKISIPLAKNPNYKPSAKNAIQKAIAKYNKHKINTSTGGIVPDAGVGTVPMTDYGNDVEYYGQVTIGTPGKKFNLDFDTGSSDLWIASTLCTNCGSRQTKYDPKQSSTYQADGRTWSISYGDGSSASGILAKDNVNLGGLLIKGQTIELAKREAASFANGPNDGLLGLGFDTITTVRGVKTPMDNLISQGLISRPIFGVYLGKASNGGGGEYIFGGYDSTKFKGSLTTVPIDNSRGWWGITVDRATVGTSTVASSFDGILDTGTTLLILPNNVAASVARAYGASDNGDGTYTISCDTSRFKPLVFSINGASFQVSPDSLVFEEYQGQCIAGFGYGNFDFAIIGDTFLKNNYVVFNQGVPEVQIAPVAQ
Experiment: Inhibition of Rhizopus chinensis pepsin using fluorescence assay

Row | pKi | SMILES
1 | 6.47 | CC(C)[C@H]1NC(=O)[C@H](NC(=O)OC(C)(C)C)CCC/C=C\CCC[C@H](CO)NC1=O
2 | 8.88 | CC(C)[C@H]1NC(=O)[C@H](NC(=O)OC(C)(C)C)CCCCCCCC[C@H](CO)NC1=O
